From BindingDB's records for doi:10.1074/jbc.M113.519421 (University of Michigan, 2014)

Biological target: T1, Serine/threonine-protein phosphatase 5 (Homo sapiens, UniProt P53041)
T1 sequence (P53041 whole entry): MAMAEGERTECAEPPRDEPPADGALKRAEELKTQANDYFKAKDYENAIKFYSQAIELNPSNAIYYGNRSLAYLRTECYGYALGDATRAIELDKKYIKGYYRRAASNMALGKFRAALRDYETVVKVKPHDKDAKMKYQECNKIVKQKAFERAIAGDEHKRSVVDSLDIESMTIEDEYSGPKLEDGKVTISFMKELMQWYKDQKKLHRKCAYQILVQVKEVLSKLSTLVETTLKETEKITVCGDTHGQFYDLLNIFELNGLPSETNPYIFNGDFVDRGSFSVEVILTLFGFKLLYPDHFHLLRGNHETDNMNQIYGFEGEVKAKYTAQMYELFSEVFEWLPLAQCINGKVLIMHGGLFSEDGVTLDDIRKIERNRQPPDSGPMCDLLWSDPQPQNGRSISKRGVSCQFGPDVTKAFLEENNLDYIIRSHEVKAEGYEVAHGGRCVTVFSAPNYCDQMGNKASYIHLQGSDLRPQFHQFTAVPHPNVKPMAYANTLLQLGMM
Assay: Fluorescence Polarization Assay
Conditions: pH 7.4; 25 °C
Procedure: All fluorescence polarization experiments were conducted in 384-well, black, low volume, round-bottomed plates (Corning) using a BioTeck Synergy 2 plate reader (Winooski, VT). For binding experiments, to each well was added increasing amounts of protein and the 5-carboxyfluorescein-labeled Hsp70/90 C-terminal probe/tracer (20 nM). […] The plate was allowed to incubate at room temperature for 5 min toreach equilibrium. […] An equilibrium binding isotherm was constructed by plotting the fluorescence polarization reading as a function of the protein concentration at a fixed concentration of tracer (20 nM).

Compound	Kd [nM]
H-DVEEM-OH [DVEEM]	> 10000
CSCC[C@H](NC(=O)[C@@H](NC(=O)[C@@H]1CCCN1C(=O)CNC(=O)[C@H](CO)NC(=O)CN)[C@@H](C)O)C(=O)N[C@@H](CCC(=O)O)C(=O)N[C@@H](CCC(=O)O)C(=O)N[C@H](C(=O)N[C@@H](CC(=O)O)C(=O)O)C(C)C	133
CSCC[C@H](NC(=O)[C@H](CCCNC(=N)N)NC(=O)[C@H](CO)NC(=O)[C@H](C)NC(=O)[C@H](CC(=O)O)NC(=O)[C@@H](N)CCC(=O)O)C(=O)N[C@@H](CCC(=O)O)C(=O)N[C@@H](CCC(=O)O)C(=O)N[C@H](C(=O)N[C@@H](CC(=O)O)C(=O)O)C(C)C	77
CC[C@H](C)[C@H](NC(=O)[C@@H](NC(=O)[C@@H]1CCCN1C(=O)CNC(=O)[C@H](CO)NC(=O)[C@@H](N)CO)[C@@H](C)O)C(=O)N[C@@H](CCC(=O)O)C(=O)N[C@@H](CCC(=O)O)C(=O)N[C@H](C(=O)N[C@@H](CC(=O)O)C(=O)O)C(C)C	1060
H-DDTSRIEEVD-OH	420
CC[C@H](C)[C@H](N)C(=O)N[C@@H](CCC(=O)O)C(=O)N[C@@H](CCC(=O)O)C(=O)N[C@H](C(=O)N[C@@H](CC(=O)O)C(=O)O)C(C)C [IEEVD]	426
